From publication PMC11357638 (Molecules, 2024)
Changes are numbered by the printed parent chain.

Key:
hTRPV3 L670A mutant = molecular target: T1, hTRPV3 L670A mutant (Homo sapiens, UniProt Q8NET8, L670A); experiment: Whole-cell patch-clamp of hTRPV3 L670A mutant in HEK293T cells; format: cell-based; settings: 50 μM 2-APB
T1 construct: expressed in transfected cells; host or cells: HEK293T
T1 sequence (Q8NET8 1-790 L670A): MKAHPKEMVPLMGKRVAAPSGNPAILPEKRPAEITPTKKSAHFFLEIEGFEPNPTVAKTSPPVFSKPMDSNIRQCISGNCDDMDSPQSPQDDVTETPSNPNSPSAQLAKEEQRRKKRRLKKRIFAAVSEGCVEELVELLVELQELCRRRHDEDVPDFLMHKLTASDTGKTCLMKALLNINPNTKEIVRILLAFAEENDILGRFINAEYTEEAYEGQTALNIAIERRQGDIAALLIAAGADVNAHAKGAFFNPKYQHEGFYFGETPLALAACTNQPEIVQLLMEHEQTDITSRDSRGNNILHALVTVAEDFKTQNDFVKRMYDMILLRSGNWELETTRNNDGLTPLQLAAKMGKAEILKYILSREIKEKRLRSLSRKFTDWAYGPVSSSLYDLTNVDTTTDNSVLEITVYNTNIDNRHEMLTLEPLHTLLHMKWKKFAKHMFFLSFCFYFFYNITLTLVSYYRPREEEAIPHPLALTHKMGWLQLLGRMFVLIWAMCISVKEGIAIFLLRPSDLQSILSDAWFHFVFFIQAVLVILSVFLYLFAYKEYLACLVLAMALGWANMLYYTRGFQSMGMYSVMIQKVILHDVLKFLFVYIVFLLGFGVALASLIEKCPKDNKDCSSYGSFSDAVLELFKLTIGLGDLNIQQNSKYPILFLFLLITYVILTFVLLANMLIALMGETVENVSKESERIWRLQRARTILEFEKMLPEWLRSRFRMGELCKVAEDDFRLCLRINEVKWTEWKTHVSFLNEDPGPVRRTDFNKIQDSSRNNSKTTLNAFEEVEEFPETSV

hTRPV3 F666A mutant = molecular target: T2, hTRPV3 F666A mutant (Homo sapiens, UniProt Q8NET8, F666A); experiment: cell-based
T2 sequence (Q8NET8 1-790 F666A): T1 sequence (Q8NET8 1-790 L670A) with F666A, A670L

hTRPV3 single channel = molecular target: T3, hTRPV3 single channel (Homo sapiens, UniProt Q8NET8); experiment: Inside-out single-channel recording of hTRPV3; format: cell-based; settings: CA at 500 μM co-applied with 50 μM 2-APB, −60 mV
T3 construct: expressed in transfected cells; host or cells: HEK293T
T3 sequence (Q8NET8 1-790): T1 sequence (Q8NET8 1-790 L670A) with A670L

- channel current inhibition by 500 μM CA compared to WT (hTRPV3 L670A mutant): no significant difference
- IC50 (hTRPV3 F666A mutant): 105 ± 4.8 µM
- open frequency (Freq) (hTRPV3 single channel): 15.96 ± 2.25 Hz
Compound: O=C(O)/C=C/c1ccc(O)c(O)c1 [CA, caffeic acid]
